# According to patent US9974305B2, “Fungicidal or bactericidal composition, and method for controlling diseases” (NISSAN CHEMICAL INDUSTRIES, LTD., priority 2014, dated 2018):
# Assays:
# [1] = system: wheat glume blotch (Leptosphaeria nodorum); experiment: Efficacy test on wheat glume blotch, seed treatment (Test Example 9); type: in vivo; conditions: single compound
# Method: An agent comprising the following compound listed in Table 2 (active ingredient A) and the compound listed in Table 11 (H35: active ingredient B) as active ingredients, was prepared in accordance with the above Formulation Example. This agent was diluted with water to a predetermined concentration to obtain a test solution. A predetermined amount of the test solution was put in a glass bottle of 5 ml, and 0.5 g (approximately 15 grains) of wheat seeds (variety: Haruyutaka) were added, stirred and air-dried. In each pot with a diameter of 7 cm having soil put therein, 3 grains were seeded and grown for 14 days. To seedlings of the wheat (variety: Haruyutaka) grown to a 1-leaf stage, a spore suspension (100,000 cfu/ml) of wheat glume blotch (Leptosphaeria nodorum) was spray-inoculated, and the pot was placed in a moist chamber set in temperature of 20° C. and humidity more than 95% RH for 48 hours. After placing the pot for 7 days in a glass greenhouse, the ratio of the formed lesion area occupying the inoculated leaves was measured, and the preventive value was calculated in accordance with the following formula. Preventive value=[1−(treated plot lesion area ratio/untreated plot lesion area ratio)]×100
# (§1) Further, from the preventive value at each agent concentration, synergy was calculated by using the Colby method (Colby S. R. 1976, Weeds 15, 20-22).
# [2] = system: cucumber powdery mildew (Sphaerotheca cucurbitae); experiment: Efficacy test on cucumber powdery mildew, irrigation treatment (Test Example 11); type: in vivo; conditions: concentration 500 ppm, cucumber (Sagami-hanjiro)
# Method: An agent comprising the following compound listed in Table 2 (active ingredient A) and the compound listed in Table 6 (C18: active ingredient B), was prepared in accordance with the above Formulation Example. This agent was diluted with water to a predetermined concentration to obtain a test solution. 5 ml of the test solution was irrigated by a pipette to the close-to-ground part of cucumber seedlings at the 1 leaf stage (variety: Sagami-hanjiro), grown in a styrol cup with a diameter of 10 cm, and next day, the seedlings were transplanted to the to 4 cun pots. Then, after cultivation for 7 days in a glass greenhouse, to the first true leaf of the cucumber, a spore suspension (100,000 cfu/ml) of cucumber powdery mildew (Sphaerotheca cucurbitae) was inoculated by spraying. After 10 days in a glass greenhouse, the ratio of the formed lesion area occupying the inoculated leaves was measured, and the preventive value was calculated in accordance with the following formula. Preventive value=[1−(treated plot lesion area ratio/untreated plot lesion area ratio)]×100
# as §1
# [3] = system: cucumber downy mildew (Pseudoperenospora cubensis); experiment: Efficacy test on cucumber downy mildew, spray treatment and prevention test (Test Example 7); type: in vivo; conditions: single compound 250 ppm; lesion area ratio
# Method: An agent comprising the following compound listed in Table 2 (active ingredient A) and the compound listed in Table 6 (C40: active ingredient B) as active ingredients, was prepared in accordance with the above Formulation Example. This agent was diluted with water to a predetermined concentration to obtain a test solution. Then, to seedlings of cucumber (variety: Sagami-hanjiro) at 1.5-leaf stage grown in a pot with a diameter of 7 cm, the test solution was applied by a spray gun in an amount of 10 ml per pot, for treatment. One day after the treatment, a spore suspension (2×100,000 cfu/ml) of cucumber downy mildew (Pseudoperenospora cubensis), was spray-inoculated, and the pot was placed in a moist chamber set in temperature of 20° C. and humidity more than 95% RH for 24 hours. After placing the pot in a glass greenhouse for 6 days, the ratio of the formed lesion area occupying the inoculated leaves was measured, and the preventive value was calculated in accordance with the following formula. Preventive value=[1−(treated plot lesion area ratio/untreated plot lesion area ratio)]×100
# Further, from the preventive value for each agent concentration, synergy was calculated by using the Colby method (Colby S. R. 1976, Weeds 15, 20-22).
# [4] = processing amount 5 mg/1 g seed
# [5] = processing amount 10 mg/1 g seed
melting point [°C],SMILES,"Preventive value [1, 4]","Preventive value [1, 5]",Preventive value [2],Preventive value [3]
–,CC(C)O/N=C(/CNC(=O)c1ccccc1C(F)(F)F)c1ncc(Cl)cc1Cl [Compound No. 4],70,75,60,0
–,COc1c(Cl)cnc(C(CNC(=O)c2ccccc2C(F)(F)F)=NOC(C)C)c1Cl [Compound No. 9],75,77,95,0
102 to 103,"CC#Cc1cnc(/C(CNC(=O)c2cn(C)nc2C(F)F)=N\OC(C)C)c(Cl)c1 [Compound No. 20, (Z)—N-[2-[3-chloro-5-(1-propynyl)pyridin-2-yl]-2-(isopropoxyimino)ethyl]-3-difluoromethyl-1-methyl-1H-pyrazole-4-carboxamide]",90,99,100,5
–,CON=C(CNC(=O)c1cn(C)nc1C(F)F)c1ncc(C#CC(C)(C)C)cc1Cl [compound 28],77,88,75,5
–,CC(C)ON=C(CNC(=O)c1ccccc1C(F)(F)F)c1ncc(C(F)(F)F)cc1Cl [compound 14],41,82,22.5,0
105 to 107,"CC(C)O/N=C(/CNC(=O)c1cn(C)nc1C(F)F)c1ncc(C#CC2CC2)cc1Cl [Compound No. 25, (Z)—N-[2-[3-chloro-5-(cyclopropylethynyl)pyridin-2-yl]-2-(isopropoxyimino)ethyl]-3-difluoromethyl-1-methyl-1H-pyrazole-4-carboxamide]",83,95,100,5
